Our source for the Ki and IC50 values is ChEMBL document CHEMBL4138187, “Novel 2-(2-arylmethylthio-4-chloro-5-methylbenzenesulfonyl)-1-(1,3,5-triazin-2-ylamino)guanidine derivatives: Inhibition of human carbonic anhydrase cytosolic isozymes I and II and the transmembrane tumor-associated isozymes IX and XII, anticancer activity, and molecular modeling studies” (Eur J Med Chem, 2018).

Some targets named below: Carbonic anhydrase 9 (Homo sapiens, UniProt Q16790); Carbonic anhydrase 1 (Homo sapiens, UniProt P00915); Carbonic anhydrase 2 (Homo sapiens, UniProt P00918).
Another assay deals with HeLa. The experiment in a line: Cytotoxicity against human HeLa cells after 72 hrs by MTT assay. In kind it is functional, cell-based.
The next assay relates to HCT-116. The assay is described as follows: Cytotoxicity against human HCT116 cells after 72 hrs by MTT assay. Conditions: HCT-116, 72 h. In kind it is functional, cell-based.
The next assay concerns MCF7. The assay is described as follows: Cytotoxicity against human MCF7 cells after 72 hrs by MTT assay. It is filed as functional, cell-based. Conditions: MCF7, 72 h.
In another assay the test system is HaCaT. The assay is described as follows: Cytotoxicity against human HaCaT cells after 72 hrs by MTT assay. In kind it is cell-based.

Sequence of Carbonic anhydrase 1 (P00915 whole entry): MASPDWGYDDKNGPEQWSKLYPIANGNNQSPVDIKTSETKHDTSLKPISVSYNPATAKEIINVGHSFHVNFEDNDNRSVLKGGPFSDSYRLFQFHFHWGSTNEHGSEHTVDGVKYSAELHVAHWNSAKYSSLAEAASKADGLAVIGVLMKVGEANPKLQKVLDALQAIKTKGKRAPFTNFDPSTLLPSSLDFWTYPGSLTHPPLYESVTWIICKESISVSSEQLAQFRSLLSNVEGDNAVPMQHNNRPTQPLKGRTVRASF
Description for Carbonic anhydrase 1: Inhibition of human carbonic anhydrase 1 by stopped-flow CO2 hydration assay
Description for Carbonic anhydrase 2: Inhibition of human carbonic anhydrase 2 by stopped-flow CO2 hydration assay
Description for Carbonic anhydrase 9: Inhibition of human carbonic anhydrase 9 by stopped-flow CO2 hydration assay

Take `N/C(=N\S(=O)(=O)c1ccccc1SCc1ccc(C(F)(F)F)cc1)NNc1nc(Cl)nc(Nc2ccc(S(N)(=O)=O)cc2)n1`: the Ki on Carbonic anhydrase 9 was 42.9 nM; at Carbonic anhydrase 1, 386 nM; on Carbonic anhydrase 2, 22 nM. Further, the IC50 in the assay on HeLa, in the assay on HCT-116 and in the assay with MCF7 was more than 100 µM throughout.

Take `N/C(=N\S(=O)(=O)c1ccccc1SCc1ccc(C(F)(F)F)cc1)NNc1nc(Cl)nc(Nc2cccc(S(N)(=O)=O)c2)n1`: the values for the Ki at Carbonic anhydrase 9, at Carbonic anhydrase 1 and on Carbonic anhydrase 2 were 421 nM, 536 nM and 326 nM, respectively. Also, the IC50 with HeLa, with HCT-116 and in the assay with MCF7 was more than 100 µM each time.

As for `N/C(=N\S(=O)(=O)c1ccccc1SCc1cccc(C(F)(F)F)c1)NNc1nc(Cl)nc(Nc2cccc(S(N)(=O)=O)c2)n1`, the inhibition constant (Ki) on Carbonic anhydrase 9 was found to be 3340 nM; on Carbonic anhydrase 1, 337 nM; on Carbonic anhydrase 2, 9.3 nM. Moreover, the IC50 in the assay on HeLa, with HCT-116 and in the assay on MCF7 was more than 100 µM throughout.

As for `N/C(=N\S(=O)(=O)c1ccccc1SCc1cccc2ccccc12)NNc1nc(Cl)nc(Nc2ccc(S(N)(=O)=O)cc2)n1`, the values for the Ki at Carbonic anhydrase 9, on Carbonic anhydrase 1 and at Carbonic anhydrase 2 were 41.1 nM, 733 nM and 161 nM, respectively. For the same molecule, the figures for the IC50 in the assay with HeLa and with HaCaT were 17 µM and 61 µM, respectively.

For `N/C(=N\S(=O)(=O)c1ccccc1SCc1ccccc1)NNc1nc(Cl)nc(Nc2ccc(S(N)(=O)=O)cc2)n1`, the Ki was 39.4 nM on Carbonic anhydrase 9, 66.6 nM on Carbonic anhydrase 1 and 83.7 nM on Carbonic anhydrase 2. For the same molecule, the IC50 with HeLa, in the assay with HCT-116 and in the assay on MCF7 was more than 100 µM throughout.

Turning to `N/C(=N\S(=O)(=O)c1ccccc1SCc1cccc2ccccc12)NNc1nc(Cl)nc(NCc2ccc(S(N)(=O)=O)cc2)n1`, the inhibition constant Ki is 383 nM on Carbonic anhydrase 9, 2140 nM at Carbonic anhydrase 1 and 187 nM on Carbonic anhydrase 2. The IC50 in the assay with HeLa, in the assay with HCT-116 and with MCF7 was more than 100 µM throughout.

In the case of `N/C(=N\S(=O)(=O)c1ccccc1SCc1ccccc1)NNc1nc(Cl)nc(Nc2cccc(S(N)(=O)=O)c2)n1`, the Ki on Carbonic anhydrase 9 was determined as 3970 nM; at Carbonic anhydrase 1 it was 396 nM; at Carbonic anhydrase 2 it was 94.7 nM. In addition, the IC50 in the assay on HeLa, in the assay with HCT-116 and with MCF7 was more than 100 µM each time.

Take `N/C(=N\S(=O)(=O)c1ccccc1SCc1ccc(C(F)(F)F)cc1)NNc1nc(Cl)nc(NCc2ccc(S(N)(=O)=O)cc2)n1`: the Ki on Carbonic anhydrase 9 stood at 47.1 nM; at Carbonic anhydrase 1 it was 514 nM; at Carbonic anhydrase 2, 89.5 nM. In addition, the IC50 with HeLa, with HCT-116 and in the assay on MCF7 was more than 100 µM in each case.

Regarding `N/C(=N\S(=O)(=O)c1ccccc1SCc1cccc(C(F)(F)F)c1)NNc1nc(Cl)nc(NCc2ccc(S(N)(=O)=O)cc2)n1`, the results for the Ki at Carbonic anhydrase 9, at Carbonic anhydrase 1 and at Carbonic anhydrase 2 were 43.6 nM, 219 nM and 5.4 nM, respectively. In addition, the IC50 in the assay on HeLa, in the assay on HCT-116 and in the assay with MCF7 was more than 100 µM throughout.

For `N/C(=N\S(=O)(=O)c1ccccc1SCc1ccccc1)NNc1nc(Cl)nc(NCc2ccc(S(N)(=O)=O)cc2)n1`, the Ki at Carbonic anhydrase 9 was 46.9 nM; on Carbonic anhydrase 1, 294 nM; on Carbonic anhydrase 2, 38.8 nM. Moreover, the IC50 in the assay with HeLa, in the assay on HCT-116 and with MCF7 was more than 100 µM each time.

`N/C(=N\S(=O)(=O)c1ccccc1SCc1cccc2ccccc12)NNc1nc(Cl)nc(Nc2cccc(S(N)(=O)=O)c2)n1`: the Ki at Carbonic anhydrase 9 came to 3400 nM; at Carbonic anhydrase 1, 3340 nM; on Carbonic anhydrase 2, 933 nM. Further, the IC50 in the assay on HeLa, in the assay on HCT-116 and in the assay on MCF7 was more than 100 µM each time.

`N/C(=N\S(=O)(=O)c1ccccc1SCc1cccc(C(F)(F)F)c1)NNc1nc(Cl)nc(Nc2ccc(S(N)(=O)=O)cc2)n1`: the results for the Ki at Carbonic anhydrase 9, at Carbonic anhydrase 1 and on Carbonic anhydrase 2 were 37.1 nM, 148 nM and 7.4 nM, respectively. The IC50 in the assay on HeLa, in the assay on HCT-116 and in the assay on MCF7 was more than 100 µM in each case.
